This passage reports logP results from the SangsterLogP compilation.

`CC(C)N(C(=O)COc1nnc(C(F)(F)F)s1)c1ccc(F)cc1`: the log partition coefficient (logP) (in general, the decadic logarithm of the partition coefficient of the neutral form, usually between octanol and water) is 3.19. Under `C[C@H]1O[C@@H](O[C@H]2[C@@H](O)C[C@H](O[C@H]3[C@@H](O)C[C@H](O[C@H]4CC[C@@]5(C)[C@H](CC[C@@H]6[C@@H]5CC[C@]5(C)[C@@H](C7=CC(=O)OC7)CC[C@]65O)C4)O[C@@H]3C)O[C@@H]2C)C[C@H](O)[C@@H]1O` stands 3.42; under `Oc1ccc(Oc2ccccc2)cc1`, 3.92.

`COc1ccc(-c2ccccc2)cc1NNC(=O)OC(C)C` returned a logP of 3.8. Under `N#Cc1c[nH]cc1-c1cccc(Cl)c1Cl` stands 3.78; under `CC1=C(C(=O)Nc2ccccc2)S(=O)(=O)CCO1`, 1.13; under `CO/C=C(/C(=O)OC)c1ccccc1Oc1cc(Oc2ccccc2C#N)ncn1`, 2.97. Under `CCCN(CCC)c1c([N+](=O)[O-])cc(C(F)(F)F)cc1[N+](=O)[O-]` stands 4.98. Compound `CCOCn1c(-c2ccc(Cl)cc2)c(C#N)c(Br)c1C(F)(F)F` had a logP of 4.61.

`CC(C)(C)c1ccc(CCOc2ncnc3ccccc23)cc1` yielded a logP of 4.91. `CON=C1C[C@]2(C[C@@H]3C[C@@H](C/C=C(\C)C[C@@H](C)C=C/C=C4\CO[C@@H]5[C@H](O)C(C)=C[C@@H](C(=O)O3)[C@]45O)O2)O[C@H](/C(C)=C/C(C)C)[C@H]1C` showed a logP of 4.99. On to `C=CCc1ccccc1OC[C@@H](O)CNC(C)C`, for which the lipophilicity (logP) is 2.63. Under `CCCCOCCOCCOCc1cc2c(cc1CCC)OCO2` stands 4.39; under `CN(C)CCC=C1c2ccccc2COc2ccccc21`, 3.75.

`CC(C)C(C(=O)OC(C#N)c1cccc(Oc2ccccc2)c1)c1ccc(Cl)cc1` (stereo unspecified) displayed a logP of 5.71. The compound `COP(=S)(OC)SCC(=O)N(c1ccc(Cl)cc1)C(C)C` came in with a log partition coefficient (logP) of 3.8.
